Laboratory results reported in ChEMBL document CHEMBL1255266, “Mechanisms of resistance to daptomycin in Enterococcus faecium” (2008).
Converted amounts (≈) assume the structure as drawn.

Columns and labels:
[1] = system: Enterococcus faecium; experiment: Antimicrobial activity against Enterococcus faecium isolate 1 from right groin wound of patient by Etest; format: functional
[2] = system: Staphylococcus aureus; experiment: microbe, parasite or virus in culture; conditions: ATCC 29213
Description: Antimicrobial activity against Staphylococcus aureus ATCC 29213 by Etest

[3] = system: Enterococcus faecium; experiment: Antimicrobial activity against Enterococcus faecium isolate 4 from lower extremity wound of patient by Etest; format: functional
[4] = system: Enterococcus faecium; experiment: Antimicrobial activity against Enterococcus faecium isolate 5 from patient blood by Etest; format: functional
[5] = system: Enterococcus faecium; experiment: Antimicrobial activity against Enterococcus faecium isolate 6 from thigh wound of patient by Etest; format: functional; conditions: isolate 6, Thigh muscle
[6] = system: Enterococcus faecium; experiment: Antimicrobial activity against Enterococcus faecium isolate 3 from abdominal wound of patient by Etest; format: functional
[7] = system: Enterococcus faecium; experiment: Antimicrobial activity against Enterococcus faecium ATCC 35667 by Etest; format: functional
[8] = system: Enterococcus faecium; experiment: Antimicrobial activity against Enterococcus faecium isolate 7 from abdominal wound of patient by Etest
[9] = system: Enterococcus faecium; experiment: Antimicrobial activity against Enterococcus faecium isolate 2 from skin lesion of patient by Etest; format: functional
[10] = system: Enterococcus faecium; experiment: Antimicrobial activity against Enterococcus faecium isolate 8 from right abdominal wound of patient by Etest

| Compound | MIC [1] | MIC [2] | MIC [3] | MIC [4] | MIC [5] | MIC [6] | MIC [7] | MIC [8] | MIC [9] | MIC [10] |
| --- | --- | --- | --- | --- | --- | --- | --- | --- | --- | --- |
| CCCCCCCCCC(=O)N[C@@H](Cc1c[nH]c2ccccc12)C(=O)N[C@H](CC(N)=O)C(=O)N[C@@H](CC(=O)O)C(=O)N[C@@H]1C(=O)NCC(=O)N[C@@H](CCCN)C(=O)N[C@@H](CC(=O)O)C(=O)N[C@H](C)C(=O)N[C@@H](CC(=O)O)C(=O)NCC(=O)N[C@H](CO)C(=O)N[C@@H]([C@H](C)CC(=O)O)C(=O)N[C@@H](CC(=O)c2ccccc2N)C(=O)O[C@@H]1C | 4 µg/mL (≈ 2.47 µM) | 0.25 µg/mL (≈ 0.154 µM) | 16 µg/mL (≈ 9.87 µM) | 8 µg/mL (≈ 4.94 µM) | 16 µg/mL (≈ 9.87 µM) | 16 µg/mL (≈ 9.87 µM) | 1 µg/mL (≈ 0.617 µM) | > 16 µg/mL | 4 µg/mL (≈ 2.47 µM) | 16 µg/mL (≈ 9.87 µM) |
| CN[C@H](CC(C)C)C(=O)N[C@H]1C(=O)N[C@@H](CC(N)=O)C(=O)N[C@H]2C(=O)N[C@H]3C(=O)N[C@H](C(=O)N[C@H](C(=O)O)c4cc(O)cc(O)c4-c4cc3ccc4O)[C@H](O)c3ccc(c(Cl)c3)Oc3cc2cc(c3O[C@@H]2O[C@H](CO)[C@@H](O)[C@H](O)[C@H]2O[C@H]2C[C@](C)(N)[C@H](O)[C@H](C)O2)Oc2ccc(cc2Cl)[C@H]1O [VANCOMYCIN] | < 2 µg/mL |  | > 16 µg/mL | > 16 µg/mL | > 16 µg/mL | < 2 µg/mL |  | > 16 µg/mL | < 2 µg/mL | > 16 µg/mL |
